According to PubChem BioAssay (NCI):
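A five-concentration, 48-hour dose response in 96-well plates underlies each endpoint, interpolated linearly between surrounding concentrations. GI50 marks 50% less growth. At the TGI there is no net growth.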

Tests used:
Experiment in all cases: NCI anticancer screen, dose series, 48 h
[1] = test system: NCI-H23 lung
[2] = test system: DU-145 prostate
[3] = test system: HCT-116 colon
[4] = test system: OVCAR-8 ovarian
[5] = test system: MOLT-4 leukemia
[6] = test system: LOX IMVI melanoma
[7] = test system: HL-60(TB) leukemia
[8] = test system: EKVX NSCLC
[9] = test system: K-562 leukemia
[10] = test system: 786-0 renal

SMILES | GI50 [1] | TGI [1] | GI50 [2] | TGI [2] | GI50 [3] | TGI [3] | GI50 [4] | TGI [4] | GI50 [5] | TGI [5] | GI50 [6] | TGI [6] | GI50 [7] | TGI [7] | GI50 [8] | TGI [8] | GI50 [9] | TGI [9] | GI50 [10] | TGI [10]
CC1(C)N=C(N)N=C(N)N1c1ccc(F)c(C(F)(F)F)c1 | 2.53 µM | > 100 µM | 3.18 µM | > 100 µM | 0.172 µM | > 100 µM | 0.597 µM | > 100 µM | 0.727 µM | > 100 µM | 0.4 µM | > 100 µM | 0.438 µM | > 100 µM | 1.53 µM | > 100 µM | 0.121 µM | > 100 µM | 0.543 µM | > 100 µM
O=C1C=C(Nc2ccccc2C(=O)CC(=O)C(=O)Nc2cccc(C(F)(F)F)c2)c2ccccc2C1=O | – | 30.5 µM | – | > 100 µM | – | 74.3 µM | – | 56.4 µM | – | > 57.9 µM | – | 27.3 µM | – | 24.2 µM | – | 98.7 µM | – | > 94.9 µM | – | > 97.2 µM
CCCN(CCC)c1ccc(CO)c(C)c1 | 35.4 µM | > 100 µM | > 100 µM | > 100 µM | 26.9 µM | > 100 µM | 27.4 µM | > 100 µM | 26.8 µM | > 100 µM | > 100 µM | > 100 µM | 21.6 µM | 48.7 µM | 28.4 µM | > 100 µM | 27.4 µM | > 100 µM | > 100 µM | > 100 µM
CCc1c2c(nc3cc4c(cc13)OCO4)-c1cc3c(c(=O)n1C2)COC(=O)[C@@]3(CC)OC(=O)CN | < 0.01 µM | < 0.0158 µM | < 0.01 µM | 0.0426 µM | 0.0214 µM | 0.0666 µM | < 0.01 µM | 0.131 µM | < 0.01 µM | < 0.01 µM | < 0.01 µM | 0.0902 µM | < 0.01 µM | < 0.01 µM | 0.0321 µM | > 100 µM | < 0.01 µM | 5.65 µM | < 0.01 µM | < 0.0127 µM
Cn1c(COC(=O)N2CCCCC2)nc2c(N3CCOCC3)nc(-c3ccccc3)nc21 | 1.48 µM | 3.11 µM | 1.01 µM | 2.31 µM | 0.173 µM | 0.471 µM | 1.03 µM | 2.57 µM | 0.353 µM | 2 µM | 0.166 µM | 0.337 µM | 0.592 µM | 2.44 µM | 1.22 µM | 2.65 µM | 0.364 µM | 6.7 µM | 0.732 µM | 2 µM
CC(C)=CCc1c(O)cc(/C=C/c2cc(O)c3c(c2)C[C@@H]2C(C)(C)[C@H](O)[C@H](O)C[C@@]2(C)O3)cc1O | 1.51 µM | 7.68 µM | 1.96 µM | > 10 µM | 0.00519 µM | > 10 µM | 1.92 µM | > 10 µM | < 0.001 µM | 0.0148 µM | 0.0021 µM | 3.02 µM | < 0.001 µM | 3.05 µM | 0.789 µM | 4.49 µM | 0.0154 µM | > 9.25 µM | < 0.001 µM | > 6.26 µM
CC(ONC(=O)c1cc(C(F)(F)F)cc(C(F)(F)F)c1)C(=O)Nc1ccc(Cl)cc1 (centres undefined) | 3.55 µM | 10.6 µM | 11.5 µM | > 100 µM | 4.97 µM | 16.4 µM | 6.2 µM | > 62.1 µM | 2.65 µM | 22.3 µM | 4.02 µM | 14 µM | 3.86 µM | 28.3 µM | 4.46 µM | > 63 µM | 5.75 µM | > 45.5 µM | 5.61 µM | 22 µM
CCN(CC)c1ccc2c(c1)Oc1nc(N)c(C#N)c(N)c1C2Sc1ccc(SC)cc1 (centres undefined) | 1.58 µM | 3.16 µM | 1.82 µM | 3.21 µM | 1.46 µM | 2.81 µM | 2.08 µM | 4.43 µM | 1.33 µM | 4.6 µM | 1.39 µM | 2.75 µM | 1.97 µM | 5.15 µM | 0.528 µM | 1.97 µM | 2.33 µM | 5.69 µM | 1.75 µM | 3.19 µM
COC(=O)CCC(=O)c1c(C)[nH]c(/C=C2\N=C(c3ccc[nH]3)C=C2OC)c1C | 1.79 µM | 4.7 µM | 0.344 µM | 1.8 µM | 0.257 µM | – | 0.754 µM | 2.23 µM | 0.405 µM | 1.85 µM | 0.0666 µM | 0.261 µM | 0.602 µM | 2.83 µM | 1.1 µM | 2.94 µM | 1.24 µM | 3.18 µM | 0.552 µM | 1.82 µM
COc1cccc(/C=N\Nc2ccc([N+](=O)[O-])cn2)c1O | 2.92 µM | 14.9 µM | 4.34 µM | 62.6 µM | 3.04 µM | 15.2 µM | 2.55 µM | 15.6 µM | 3.43 µM | 16.9 µM | 2.58 µM | 14.6 µM | 3.13 µM | 17.7 µM | 3.59 µM | 29.3 µM | 3.12 µM | > 100 µM | 3.53 µM | 28.9 µM
O=C1Nc2ccccc2C1Cc1ccccc1 (centres undefined) | – | > 100 µM | – | > 100 µM | – | > 100 µM | – | > 100 µM | – | > 100 µM | – | > 100 µM | – | > 100 µM | – | > 100 µM | – | > 100 µM | – | > 100 µM
O=[N+]([O-])c1ccccc1N=Nc1c(O)[nH]c2ccccc12 | – | 35.9 µM | – | > 89.8 µM | – | > 54.2 µM | – | > 53.5 µM | – | > 100 µM | – | > 53 µM | – | > 100 µM | – | 97.6 µM | – | > 100 µM | – | 36.1 µM
CCOC(=O)CC1(O)C=CC(=O)C=C1 | 0.541 µg/mL | 1.75 µg/mL | 2.54 µg/mL | 7.75 µg/mL | 2.47 µg/mL | 5.44 µg/mL | 0.425 µg/mL | 1.13 µg/mL | 0.4 µg/mL | 1.61 µg/mL | 0.498 µg/mL | 1.68 µg/mL | 1 µg/mL | 24.3 µg/mL | 3.24 µg/mL | 6.16 µg/mL | 1.37 µg/mL | 10.8 µg/mL | 0.596 µg/mL | 2 µg/mL
O=C(O)C1C2CC3C(OC(=O)C31)C2Br (centres undefined) | – | > 100 µM | – | > 100 µM | – | > 100 µM | – | > 100 µM | – | > 58.1 µM | – | > 100 µM | – | > 23.4 µM | – | > 100 µM | – | > 88.9 µM | – | > 100 µM
O=C(Nc1ccc(Br)cc1)Nc1n[nH]c2ccccc12 | > 100 µM | > 100 µM | > 60.2 µM | > 100 µM | 33.8 µM | > 100 µM | 71.2 µM | > 100 µM | 8.98 µM | > 100 µM | > 100 µM | > 100 µM | 18.7 µM | > 90 µM | > 100 µM | > 100 µM | 59.1 µM | > 100 µM | > 100 µM | > 100 µM
COc1cc(-c2[nH]ccc2Cl)oc1C1=C2N=C3C=C2C(C(C)C)C1CCCCCCCC3 (centres undefined) | – | 2.05 µM | – | 1.85 µM | – | 0.992 µM | – | 1.83 µM | – | 1.74 µM | – | 0.348 µM | – | 0.943 µM | – | 3.51 µM | – | 1.85 µM | – | 2.34 µM
CS(=O)(=O)CCNCc1ccc(-c2ccc3ncnc(Nc4ccc(OCc5cccc(C(F)(F)F)c5)cc4)c3c2)o1 | 5.93 µM | 15.7 µM | 6.98 µM | > 22.6 µM | 5.07 µM | 10 µM | 6.91 µM | > 21.9 µM | 4.87 µM | > 20.9 µM | 4.53 µM | 9.32 µM | 4.96 µM | 10.9 µM | 6.03 µM | > 23.3 µM | 3.18 µM | 15 µM | 4.61 µM | 8.85 µM
O=Cc1ccc(-c2ccc(-c3ccc(C=O)s3)o2)s1 | – | > 100 µM | – | > 100 µM | – | > 100 µM | – | > 100 µM | – | > 100 µM | – | > 100 µM | – | > 100 µM | – | > 90 µM | – | > 100 µM | – | > 100 µM
CC(=O)OC1COC(S[As](C)C)C(OC(C)=O)C1OC(C)=O (centres undefined) | 0.322 µM | 4.53 µM | 0.0701 µM | 0.902 µM | 0.17 µM | 2.04 µM | 0.735 µM | 5.31 µM | 0.0152 µM | 0.0672 µM | 0.223 µM | 0.691 µM | < 0.0158 µM | 0.072 µM | 2.07 µM | 17.1 µM | 0.0176 µM | 0.0913 µM | 0.0811 µM | 1.12 µM
